Structures can show the parent of a compound that is named as a salt.

One assay has as its system hippocampal neurons. The assay can be described thus: Test Example 1: ability to promote axonal outgrowth. Format: cell-based, Wistar rats. The settings on record: Hippocampal neuron, 216 h, % of control, rat hippocampal neurons, day 9, read-out: Promotion of axonal outgrowth (%); for activity at 3 µM: Compound Conc. = 3 μM; for activity at 0.3 µM: Compound Conc. = 0.3 μM. Here is the method: According to the method of M. P. Mattson [M. P. Mattson, Brain Res. Rev., 13, 179, (1988)], the hippocampal region was isolated from 18-day embryos of female Wistar rats and the neurons were dispersed using the papain dissociation system. Hippocampal neuron were suspended in 5% Nu-serum+B27 supplement+Neurobasal medium at 5×10^4 cells/well/2 mL. 2 mL of the cell suspension were inoculated on a poly-D-lysine-coated 36φ dish and the neuron were incubated at 37° C. in a 5% CO2 incubator.
On day 3 of the incubation period, 1 mL of the culture medium was replaced with 1 mL of 5% Nu-serum+B27 supplement+Neurobasal medium containing 2 mM AraC. Each test compound was added to the culture on day 3 and day 7 of the incubation period. On day 9, cells were fixed in a 4% paraformaldehyde solution. The nerve axons of the fixed cells were stained with the Rabbit anti-growth-associated protein-43 polyclonal antibody and the stained cells were quantified using Kurabo neuron outgrowth-quantication software.
The ability (%) of each test compound to promote axonal outgrowth was calculated from the following equation: The ability to promote axonal outgrowth (%)=[(measurement with a compound of interest)/(measurement of control)]×100
Example Compounds shown in Table 25 were used as test compounds and were each added at concentrations of 3 μM and 0.3 μM.
Since bFGF gives a measurement of about 120 in this test, 120 is used as the threshold to determine whether a given compound has the ability to promote axonal outgrowth

The test system of assay [1] is mixture of human vascular endothelial cells and fibroblasts. Briefly: Test Example 2: ability to promote angiogenesis (angiogenesis test kit KZ-1000). As to conditions: Homo sapiens, 216 h, lumen length, % of control, day 9, read-out: Promotion of angiogenesis (%); for activity at 3 µM: Compound Conc. = 3 μM; for activity at 0.3 µM: Compound Conc. = 0.3 μM. Format: cell-based. Here is the method:
Using an angiogenesis test kit containing a mixture of human vascular endothelial cells and fibroblasts [KZ-1000; Kurabo], the ability of test compounds to promote angiogenesis was evaluated. Each test compound was added on days 1, 4, and 7 of the incubation period. On day 9, cells were immunostained with CD31 and photographed. Control cells were cultured under the same conditions, only without the addition of a test compound, and photographed.
The lumen length of the blood vessel was quantified from the obtained images using an angiogenesis-quantification software. The ability (%) of each test compound to promote angiogenesis was calculated from the following equation: The ability to promote angiogenesis (%)=[(measurement with a compound of interest)/(measurement of control)]×100
Example Compounds shown in Table 26 were used as test compounds.
Since bFGF gives a measurement of about 120 in this test, 120 is used as the threshold to determine whether a given compound has the ability to promote angiogenesis.

Take `Cc1nc(NCC(=O)N(C)C2CCN(Cc3ccccc3)CC2)nc(C)c1N` [Compound 63, 2-(5-amino-4,6-dimethylpyrimidine-2-ylamino)-N-(1-benzylpiperidine-4-yl)-N-methylacetamide]: the activity at 3 µM with hippocampal neurons turned out to be 186%.
For the compound `Cc1nc(OCC(=O)N(C)C2CCN(Cc3ccc(C(N)=O)cc3)CC2)nc(C)c1N` [Compound 64, 4-((4-(2-(5-amino-4,6-dimethylpyrimidine-2-yloxy)-N-methylacetamide)piperidine-1-yl)methyl)benzamide], the activity at 0.3 µM in the assay with hippocampal neurons worked out at 120%. In addition, the activity at 3 µM in assay [1] turned out to be 177%.
Consider `Cc1nc(OCC(=O)N(C)C2CCN(Cc3ccc(C(F)(F)F)cc3)CC2)nc(C)c1N` [Compound 69, 2-(5-amino-4,6-dimethylpyrimidine-2-yloxy)-N-methyl-N-(1-(4-(trifluoromethyl)benzyl)piperidine-4-yl)acetamide], for which the activity at 0.3 µM with hippocampal neurons is 172%; in assay [1] it was 161%.
As to `Cc1nc(OCC(=O)N(C)C2CCN(Cc3ccc(Cl)cc3)CC2)nc(C)c1N` [Compound 72, 2-(5-amino-4,6-dimethylpyrimidine-2-yloxy)-N-(1-(4-chlorobenzyl)piperidine-4-yl)-N-methylacetamide], the activity at 3 µM in the assay on hippocampal neurons was found to be 141%; in assay [1] it was 142%.
For `Cc1nc(OCC(=O)N(C)C2CCN(CC(C)C)CC2)nc(C)c1N` [Compound 73, 2-(5-amino-4,6-dimethylpyrimidine-2-yloxy)-N-(1-isobutylpiperidine-4-yl)-N-methylacetamide] the same measures were 131% and 139%.
For `Cc1nc(OCC(=O)N(C)C2CCN(CCc3ccccc3)CC2)nc(C)c1N` [Compound 75, 2-(5-amino-4,6-dimethylpyrimidine-2-yloxy)-N-methyl-N-(1-phenetylpiperidine-4-yl)acetamide] the same measures were 125% and 150%.
Take `Cc1nc(OCC(=O)N(C)C2CCN(C(=O)C3CCCCC3)CC2)nc(C)c1N` [Compound 76, 2-(5-amino-4,6-dimethylpyrimidine-2-yloxy)-N-(1-(cyclohexanecarbonyl)piperidine-4-yl)-N-methylacetamide hydrochloride]: the values for the activity at 3 µM (with hippocampal neurons; in assay [1]) were 123% and 149%, respectively.
For `CC(=O)N1CCC(N(C)C(=O)COc2nc(C)c(N)c(C)n2)CC1` [Compound 77, N-(1-acetylpiperidine-4-yl)-2-(5-amino-4,6-dimethylpyrimidine-2-yloxy)-N-methylacetamide hydrochloride] the same measures were 135% and 149%.
In the same order, the values of `Cc1nc(OCC(=O)N(C)C2CCN(S(=O)(=O)c3ccccc3)CC2)nc(C)c1N` [Compound 78, 2-(5-amino-4,6-dimethylpyrimidine-2-yloxy)-N-methyl-N-(1-(phenylsulfonyl)piperidine-4-yl)acetamide] are 130% and 144%.
In the same order, the values of `Cc1nc(OCC(=O)N(C)C2CCN(C3CCCCC3)CC2)nc(C)c1N` [Compound 79, 2-(5-amino-4,6-dimethylpyrimidine-2-yloxy)-N-(1-cyclohexylpiperidine-4-yl)-N-methylacetamide] are 123% and 133%.
As to `Cc1nc(OCC(=O)N(C)C2CCN(C(=O)N3CCCCC3)CC2)nc(C)c1N` [Compound 80, 2-(5-amino-4,6-dimethylpyrimidine-2-yloxy)-N-methyl-N-(1-(piperidine-1-carbonyl)piperidine-4-yl)acetamide], in the assay with hippocampal neurons, the activity at 3 µM was 129%. In assay [1], the activity at 0.3 µM is 116%.
Regarding `Cc1ccccc1CN1CCC(N(C)C(=O)COc2nc(C)c(N)c(C)n2)CC1` [Compound 81, 2-(5-amino-4,6-dimethylpyrimidine-2-yloxy)-N-methyl-N-(1-(2-methylbenzyl)piperidine-4-yl)acetamide], the activity at 3 µM with hippocampal neurons worked out at 115%; in assay [1], 126%.
In the same order, the values of `Cc1nc(OCC(=O)N(C)C2CCN(c3ccccc3)CC2)nc(C)c1N` [Compound 82, 2-(5-amino-4,6-dimethylpyrimidine-2-yloxy)-N-methyl-N-(1-phenylpiperidine-4-yl)acetamide] are 154% and 130%.
For the compound `COc1cccc(CN2CCC(N(C)C(=O)COc3nc(C)c(N)c(C)n3)CC2)c1` [Compound 88, 2-(5-amino-4,6-dimethylpyrimidine-2-yloxy)-N-(1-(3-methoxybenzyl)piperidine-4-yl)-N-methylacetamide hydrochloride], in the assay on hippocampal neurons, the activity at 0.3 µM came to 142%. Also, the activity at 3 µM in assay [1] is 122%.
For `Cc1nc(OCC(=O)N(C)C2CCN(Cc3ccc(-c4ccccc4)cc3)CC2)nc(C)c1N` [Compound 93, 2-(5-amino-4,6-dimethylpyrimidine-2-yloxy)-N-(1-(biphenyl-4-ylmethyl)piperidine-4-yl)-N-methylacetamide hydrochloride], the activity at 3 µM in the assay with hippocampal neurons turned out to be 143%; in assay [1] it was 138%.
On to `Cc1nc(OCC(=O)N(C)C2CCNCC2)nc(C)c1N` [Compound 94, 2-(5-amino-4,6-dimethylpyrimidine-2-yloxy)-N-methyl-N-(piperidine-4-yl)acetamide], for which the activity at 3 µM with hippocampal neurons was determined as 122%.
As for `Cc1cc(C)nc(OCC(=O)N(C)C2CCN(Cc3ccccc3)CC2)n1` [Compound 95, N-(1-benzylpiperidine-4-yl)-2-(4,6-dimethylpyrimidine-2-yloxy)-N-methylacetamide hydrochloride], the activity at 3 µM in the assay with hippocampal neurons worked out at 201%; in assay [1] it was 133%.
With `Cc1nc(OCC(=O)NC2CCN(CC3CC3)CC2)nc(C)c1N` [Compound 101, 2-(5-amino-4,6-dimethylpyrimidine-2-yloxy)-N-(1-(cyclopropylmethyl)piperidine-4-yl)acetamide], the activity at 3 µM with hippocampal neurons came to 193%.
`CC(C)c1nc(OCC(=O)N(C)C2CCN(Cc3ccccc3)CC2)nc(C(C)C)c1N` [Compound 104, 2-(5-amino-4,6-diisopropylpyrimidine-2-yloxy)-N-(1-benzylpiperidine-4-yl)-N-methylacetamide]: the activity at 0.3 µM in the assay on hippocampal neurons was determined as 134%.
As to `Cc1cnc(Cl)nc1OC(C)(C)C(=O)N(C)C1CCN(Cc2ccccc2)CC1` [Compound 112, N-(1-benzylpiperidine-4-yl)-2-(2-chloro-5-methylpyrimidine-4-yloxy)-N,2-dimethylpropanamide maleate], the activity at 3 µM with hippocampal neurons is 126%.
The same measure, in the same setting: then `Cc1nc(N)nc(C)c1OCC(=O)N(C)C1CCN(Cc2ccccc2)CC1` [Compound 113, 2-(2-amino-4,6-dimethylpyrimidine-5-yloxy)-N-(1-benzylpiperidine-4-yl)-N-methylacetamide], with 144%.
Regarding `CN(C(=O)COc1cncc(Cl)c1)C1CCN(Cc2ccccc2)CC1` [Compound 125, N-(1-benzylpiperidine-4-yl)-2-(5-chloropyridine-3-yloxy)-N-methylacetamide hydrochloride], the activity at 0.3 µM in the assay on hippocampal neurons was determined as 173%.
Regarding `CN(C(=O)COc1cncc(Cl)c1)C1CCN(CC2CC2)CC1` [Compound 126, 2-(5-chloropyridine-3-yloxy)-N-(1-(cyclopropylmethyl)piperidine-4-yl)-N-methylacetamide hydrochloride], in the assay with hippocampal neurons, the activity at 3 µM is 167%.
In the case of `CN(C(=O)COc1cncc(Cl)n1)C1CCN(Cc2ccccc2)CC1` [Compound 129, N-(1-benzylpiperidine-4-yl)-2-(6-chloropyrazine-2-yloxy)-N-methylacetamide hydrochloride], the activity at 3 µM with hippocampal neurons is 147%.
On to `O=C(COc1ccc(Cl)nn1)N(C1CC1)C1CCN(Cc2ccccc2)CC1` [Compound 138, N-(1-benzylpiperidine-4-yl)-2-(6-chloropyridazine-3-yloxy)-N-cyclopropylacetamide], for which the activity at 3 µM in the assay with hippocampal neurons was 151%.
On the same count and under the same terms, then `CN(C(=O)CNc1c(Cl)cnnc1Cl)C1CCN(Cc2ccccc2)CC1` [Compound 139, N-(1-benzylpiperidine-4-yl)-2-(3,5-dichloropyridazine-4-ylamino)-N-methylacetamide], with 143%.
With `COc1cnnc(Cl)c1NCC(=O)N(C)C1CCN(Cc2ccccc2)CC1` [Compound 140, N-(1-benzylpiperidine-4-yl)-2-(3-chloro-5-methoxypyridazine-4-ylamino)-N-methylacetamide], in the assay on hippocampal neurons, the activity at 0.3 µM was found to be 128%.
